The results in this text go back to US20220389515A1, “USE OF BIOMARKERS TO PREDICT CLINICAL SENSITIVITY TO 2-(4-CHLOROPHENYL)-N-((2-(2,6-DIOXOPIPERIDIN-3-YL)-1-OXOISOINDOLIN-5-YL)METHYL)-2,2-DIFLUOROACETAMIDE” (priority 2019, published 2022).

One test deals with U937 and OCI-AML2 cells. Description: Flow cytometry-based CRISPR competition assay (RFP+/GFP+ ratio). Format: cell-based, human. Here is the method:
To investigate the role of the mTOR signaling pathway in mediating Compound D sensitivity, a CRISPR competition assay was performed (see FIG. 6A). U937 cells stably expressing Cas9 were infected with a lentiviral vector expressing GFP and non-targeting sgRNA (sgNT), or lentiviral vectors expressing RFP and non-targeting sgRNA (sgNT), or lentiviral vectors expressing RFP and sgRNAs targeting MTOR, RICTOR or RAPTOR. Cells were then treated with DMSO or 100 nM Compound D. The RFP+/GFP+ ratio was monitored by flow cytometry every 2-3 days thereafter.
Next, CRISPR competition assays were conducted in U937 and OCI-AML2 cells as described above. Specifically, U937 cells stably expressing Cas9 were infected with lentiviral vector constitutively expressing GFP and non-targeting sgRNA (sgNT), or with lentiviral vectors constitutively expressing RFP and non-targeting sgRNA (sgNT) or sgRNAs targeting TSC1 or TSC2. Three days after infection, RFP and GFP cells were mixed at a 1:1 ratio and treated with DMSO, 1 μM Compound D, or 10 μM Compound D. The change of RFP+/GFP+ ratio was monitored by flow cytometry every 2-3 days thereafter. Similarly, OCI-AML2 cells stably expressing Cas9 were infected with lentiviral vector constitutively expressing GFP and non-targeting sgRNA (sgNT), or with lentiviral vectors constitutively expressing RFP and non-targeting sgRNA (sgNT) or sgRNAs targeting TSC1 or TSC2. Three days after infection, RFP and GFP cells were mixed at a 1:1 ratio and treated with DMSO, 0.1 μM Compound D, or […] Compound D. The change of RFP+/GFP+ ratio was monitored by flow cytometry every 2-3 days thereafter.
A CRISPR competition assay was performed as shown in the upper panel of FIG. 5A, and similarly to the assay described above. U937 cells stably expressing Cas9 were infected with a lentiviral vector constitutively expressing GFP and non-targeting sgRNA (sgNT), or with lentiviral vectors constitutively expressing RFP and non-targeting sgRNA (sgNT) or sgRNAs targeting GCN2. On day 2, RFP and GFP cells were mixed at a 1:1 ratio and treated with DMSO or 100 nM Compound D. The change of RFP+/GFP+ ratio was monitored by flow cytometry every 2-3 days thereafter.
Next, CRISPR competition assays were conducted in U937 and OCI-AML2 cells as described above. Specifically, U937 and OCI-AML2 cell lines were transduced with plenti-EF1á-Cas9-P2A-Blast, followed by Blasticidin selection to establish Cas9-expressing cell lines. U937-Cas9 and OCI-AML2-Cas9 cells were then transduced with pRSG17-U6-sgNT-1-UbiC-TagGFP2-2A-Puro, or pRSG16-U6-UbiC-TagRFP-2A-Puro vectors expressing sgNT-1, sgNC-1, sgNC-8 or gene-specific sgRNAs. Transduced cells were washed with 1×PBS 72 hours post-transduction. Cells were assessed for transduction via RFP or GFP fluorescence reporter expression. Once fluorescence reporter expression was confirmed, RFP- and GFP-transduced cells were mixed at a 1:1 ratio and seeded in 2 ml culture media per well in 12-well tissue culture plates at a cell density of 200,000 cells per mL, and treated with DMSO or an appropriate dose of Compound. Remaining cells underwent puromycin selection for 3-7 days and were harvested for immunoblot analysis to confirm gene knock-out. After seeding cells for culture in 12-well plates, 100 iL cell culture per well was removed for flow cytometric analysis as the baseline “Day 0” RFP- and GFP-positive percentages in each well. […]
(In flow cytometry, cells or beads pass a laser one at a time.)

Test [1] has as its target T1, HA-tagged GSPT1 and endogenous cereblon (Homo sapiens, UniProt P15170+Q96SW2).
T1 construct: expressed in transfected cells; host or cells: U937-Cas9 cells stably expressing HA-tagged GSPT1 (cereblon endogenous); cells treated with MLN4924 and Compound D, anti-HA immunoprecipitation
The test can be described thus: Anti-HA immunoprecipitation of HA-tagged GSPT1 with endogenous cereblon in U937-Cas9 cells. The format is cell-based. The note with it: with MLN4924.

The subject of test [2] is ATF4 target genes ATF3, CHOP and DDIT4. The test can be described thus: Quantitative RT-PCR of ATF4 target genes. Format: cell-based, human. Here is the method: (§1) The U937 GCN2−/− cell line is derived from a single clone of U937 parental cells stably infected with a lentiviral CRISPR vector targeting GCN2. […] Cells were incubated with DMSO or 200 nM Compound D and lysed at the indicated time points. Arrows pointing to bands in the blot on the right designate the cleaved forms of caspase-3. […] The U937 GCN2−/− cell line is derived from a single clone of U937 parental cells stably infected with a lentiviral CRISPR vector targeting GCN2. […] Cells were treated with DMSO or Compound D for 24 hours. On day 3 after Compound D treatment, cell proliferation was assessed by CTG. Result shown in all figure panels is representative of at least three biological replicates. Data in FIGS. 13C, 13D and 13E are shown as mean±SD, n=3 technical replicates.
Specifically, following incubation with DMSO or Compound D, cells were collected via centrifugation at 2000 rpm for 2 minutes. Cell pellets were then washed once in ice-cold PBS and snap-frozen in liquid nitrogen. […] The cDNA transcripts of GADPH, DDIT3 (CHOP), DDIT4 (REDD), and ATF3 were quantified by the ViiA™ 7 Real-Time PCR System using TaqMan Gene Expression Assay probes (Invitrogen). The cDNA level of various CRBN transcripts was quantified using RT^2 SYBR Green qPCR Mastermixes (Qiagen). […]

A further test deals with U937 GCN2-/- cells. The test can be described thus: Immunoblot and proliferation (CTG, day 3) of U937 GCN2-/- cells re-expressing GCN2. Format: cell-based, human. The note with it: not with mutants T899A/T904A, K619R, F1143L/R1144L. Here is the method: as §1
To determine if the activation of the ISR by Compound D is solely mediated by GCN2, the effect of GCN2 ablation on Compound D response was evaluated.
For orientation: A western blot detects proteins with antibodies after separation by electrophoresis.

Entries after “also recorded” stand apart in the source; their conditions may differ.

T1 sequence (P15170 1-637 isoform P15170-3): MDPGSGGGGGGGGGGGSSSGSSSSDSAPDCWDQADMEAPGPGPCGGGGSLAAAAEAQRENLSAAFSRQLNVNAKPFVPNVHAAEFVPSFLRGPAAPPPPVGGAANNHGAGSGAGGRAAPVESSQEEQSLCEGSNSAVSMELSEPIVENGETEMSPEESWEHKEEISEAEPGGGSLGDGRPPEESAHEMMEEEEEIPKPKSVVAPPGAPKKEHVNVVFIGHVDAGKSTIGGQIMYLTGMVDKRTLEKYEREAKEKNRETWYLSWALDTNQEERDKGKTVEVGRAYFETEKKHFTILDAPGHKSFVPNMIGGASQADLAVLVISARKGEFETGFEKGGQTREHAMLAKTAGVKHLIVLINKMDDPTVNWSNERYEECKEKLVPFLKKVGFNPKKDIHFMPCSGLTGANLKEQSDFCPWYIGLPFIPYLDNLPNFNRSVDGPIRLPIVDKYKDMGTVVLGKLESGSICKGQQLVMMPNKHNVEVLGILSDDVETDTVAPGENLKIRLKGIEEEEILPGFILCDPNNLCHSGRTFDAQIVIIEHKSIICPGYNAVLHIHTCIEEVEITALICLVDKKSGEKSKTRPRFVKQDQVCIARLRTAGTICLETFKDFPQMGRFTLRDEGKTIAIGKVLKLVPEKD
T1 sequence (Q96SW2 whole entry): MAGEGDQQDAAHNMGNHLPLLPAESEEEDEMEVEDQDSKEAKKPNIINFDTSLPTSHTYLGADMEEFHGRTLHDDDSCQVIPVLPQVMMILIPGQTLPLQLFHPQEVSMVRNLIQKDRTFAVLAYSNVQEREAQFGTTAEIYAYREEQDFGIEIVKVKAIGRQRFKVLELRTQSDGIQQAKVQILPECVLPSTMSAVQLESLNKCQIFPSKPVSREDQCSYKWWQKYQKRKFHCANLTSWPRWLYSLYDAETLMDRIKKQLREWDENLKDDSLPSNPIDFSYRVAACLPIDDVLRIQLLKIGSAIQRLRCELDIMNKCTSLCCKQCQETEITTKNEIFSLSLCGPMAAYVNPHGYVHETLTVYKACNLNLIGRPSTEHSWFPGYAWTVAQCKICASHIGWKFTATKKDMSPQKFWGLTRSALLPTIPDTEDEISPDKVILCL
T1 sequence (Q16531 whole entry partner): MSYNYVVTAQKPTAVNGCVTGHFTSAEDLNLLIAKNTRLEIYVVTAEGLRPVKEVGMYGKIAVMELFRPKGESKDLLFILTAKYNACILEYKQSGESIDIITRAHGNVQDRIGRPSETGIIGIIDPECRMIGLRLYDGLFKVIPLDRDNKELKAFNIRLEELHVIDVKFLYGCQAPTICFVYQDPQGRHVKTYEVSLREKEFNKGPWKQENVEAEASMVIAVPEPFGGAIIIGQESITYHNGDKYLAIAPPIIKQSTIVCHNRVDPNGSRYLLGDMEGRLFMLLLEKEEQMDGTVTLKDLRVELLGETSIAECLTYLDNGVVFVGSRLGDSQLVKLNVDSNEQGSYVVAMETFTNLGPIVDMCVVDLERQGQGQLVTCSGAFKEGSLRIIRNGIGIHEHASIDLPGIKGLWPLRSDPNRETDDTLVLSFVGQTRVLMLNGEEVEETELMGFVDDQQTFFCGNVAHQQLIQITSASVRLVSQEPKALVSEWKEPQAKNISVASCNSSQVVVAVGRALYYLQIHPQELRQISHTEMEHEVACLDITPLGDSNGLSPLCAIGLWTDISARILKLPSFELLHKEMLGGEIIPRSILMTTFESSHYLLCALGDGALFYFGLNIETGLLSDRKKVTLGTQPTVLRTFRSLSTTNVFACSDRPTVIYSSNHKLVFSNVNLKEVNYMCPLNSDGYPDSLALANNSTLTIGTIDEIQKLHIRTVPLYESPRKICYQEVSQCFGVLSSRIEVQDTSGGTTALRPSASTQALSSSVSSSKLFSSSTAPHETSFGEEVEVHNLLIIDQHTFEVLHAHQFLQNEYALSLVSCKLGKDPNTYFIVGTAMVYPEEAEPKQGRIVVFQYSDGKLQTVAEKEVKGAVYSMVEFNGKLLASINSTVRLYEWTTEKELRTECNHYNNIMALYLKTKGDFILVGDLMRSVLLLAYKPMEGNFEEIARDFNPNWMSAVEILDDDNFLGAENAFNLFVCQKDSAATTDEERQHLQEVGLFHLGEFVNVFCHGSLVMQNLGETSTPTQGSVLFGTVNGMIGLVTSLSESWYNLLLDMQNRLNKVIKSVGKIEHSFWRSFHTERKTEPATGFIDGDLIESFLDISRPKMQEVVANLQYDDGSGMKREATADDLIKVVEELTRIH

Turning to `O=C1CCC(N2Cc3cc(CNC(=O)C(F)(F)c4ccc(Cl)cc4)ccc3C2=O)C(=O)N1` (stereo not drawn) [Compound D, 2-(4-chlorophenyl)-N-((2-(2,6-dioxopiperidin-3-yl)-1-oxoisoindolin-5-yl)methyl)-2,2-difluoroacetamide], in the test with U937 and OCI-AML2 cells (U937 1 μM or 10 μM, OCI-AML2 0.1 μM or 1 μM), the “response after TSC1 or TSC2 knockout” value was “conferred a growth advantage in the presence of, but not in the absence of, Compound D; also recorded: increased resistance to Compound D”. The “growth inhibition after loss of GCN1, GCN2, ATF4 or DDIT4” value in the test with U937 and OCI-AML2 cells (U937 (10 μM) and OCI-AML2) was “protected the cells against Compound D-induced growth inhibition”. In the test on U937 and OCI-AML2 cells (U937, 100 nM), the “response of cells lacking GCN2” value is reported as “resistant to Compound D”; the “sensitivity after knockout of mTOR, Raptor and Rictor” value is “enhances U937 sensitivity to Compound D”. In addition, the “response after ILF2 or ILF3 knockout” value in the test on U937 and OCI-AML2 cells (U937 and OCI-AML2) is “led to Compound D resistance”. Further, the “Compound D-induced interaction of HA-tagged GSPT1 with endogenous cereblon after TSC1 loss” value in test [1] is “significantly reduced the interaction between HA-tagged GSPT1 and endogenous cereblon induced by Compound D”. The “mRNA level of ATF4 target genes” value in test [2] (U937 24 hours, KG-1 200 nM for 2, 4 or 6 hours) is “marked induction of ATF4 target genes ATF3, CHOP and DDIT4 at the mRNA level”. In addition, the “induction of ATF3 and CHOP after GCN2 loss” value in test [2] (U937 GCN2-/-, 24 hours) was “largely, but not completely, blocked the induction of other ATF4 target genes ATF3 and CHOP”. Moreover, the “response after reintroduction of GCN2 wild-type” value in the test on U937 GCN2-/- cells is given as “significantly restored the response to Compound D”.
